# Like-named read-outs stand apart in the source and are kept apart here.
# Tests used:
# mAb3C9 [1] = experiment: mimotope-based dcELISA (mAb3C9 and M20-GST-BAD/SA-HRP competitor); type: binding, mouse; conditions: for CR (%): M20-GST-BAD, (IC50 of parathion-methyl/IC50 of pesticide) × 100; for LOD (IC10): mAb3C9, M20-GST-BAD; for IC50 ± SD: mAb3C9, competitor M20-GST-BAD
# Method: To develop a mimotope-based dcELISA, the biotinylated mimotope fusion protein was firstly assembled with streptavidin-HRP conjugate (SA-HRP) utilized the high affinity of biotin and streptavidin. The assembly process was just mixing a certain amount of biotinylated mimotope fusion protein with SA-HRP and incubating them at 4 °C overnight before use as an HRP-labeled competitor.
# An innovative mimotope-based dcELISA was developed and performed as below. […] TMB solution (100 μL/well) was added and incubated for 15 min at 37 °C.
# The optimal condition for mimotope-based dcELISA was optimized as chemosynthesized antigen-based dcELISA. The selectivity and sensitivity of the developed mimotope-based dcELISA for the 24 OPs were also determined under the optimum condition.
# [2] = ref Hua et al. 11; cited from earlier work
# [3] = ref Liang et al. 9; cited from earlier work
# [4] = system: mAb against a generic hapten (3-(4-dimethoxyphosphorothioyloxy phenyl)propanoic acid); conditions: ref Liu et al. 10; cited from earlier work
# mAb4D11 = experiment: optimized mAb4D11-based dcELISA; conditions: mAb4D11-based dcELISA
# Method: (§1) The dcELISA procedure was performed as below. First, the plate (Costar, Corning Inc., New York, USA) was coated with coating antigen (100 μL/well in 1 × PBS) for 1 h at 37 °C. Then, the wells were washed four times with PBST (1 × PBS with 0.05% (v/v) Tween-20) and blocked with 2% skim milk (200 μL/well) for 1 h at 37 °C. After washing four times, 50 μL analyte in MeOH-water solution and 50 μL mAb-HRP in PBS were added. The plate was incubated for 1 h at 37 °C and then washed four times before adding TMB solution (100 μL/well). After incubation for 15 min at 37 °C, 50 μL/well of H2SO4 (2 mol/L) was added to stop the reaction, and the absorbance was recorded at 450 nm using the Model 680 plate reader (Bio-Rad, USA).
# (§2) 18 kinds of O,O-dimethyl OPs and 6 kinds of O,O-diethyl OPs were purchased from National Standards of China and used for the selectivity and sensitivity study using the optimized dcELISA procedure. […] The IC50 value and detection limit of each OP were calculated. The CR value, which was used to evaluate the selectivity of the method, was calculated using the following equation:
# mAb3C9 [5] = experiment: optimized chemosynthesized antigen-based dcELISA (mAb3C9 and hapten 6-OVA); conditions: for CR (%): Hapten 6-OVA, (IC50 of parathion-methyl/IC50 of pesticide) × 100; for LOD (IC10): mAb3C9, Hapten 6-OVA; for IC50 ± SD: mAb3C9, coating antigen Hapten 6-OVA
# Method: as §1, §2
Structure (SMILES),CR (%) (mAb3C9 [1]),LOD (IC10) (mAb3C9 [1]) [ng/mL],IC50 ± SD (mAb3C9 [1]) [ng/mL],IC50 [2] [ng/mL],IC50 [3] [ng/mL],IC50 [4] [ng/mL],CR (%) (mAb4D11),IC50 (mAb4D11) [ng/mL],LOD (mAb4D11) [ng/mL],CR (%) (mAb3C9 [5]),LOD (IC10) (mAb3C9 [5]) [ng/mL],IC50 ± SD (mAb3C9 [5]) [ng/mL]
COP(=S)(OC)Oc1ccc(SC)c(C)c1 [Fenthion],21.6,4.4,23.4 ± 1.7,> 100000,788.9,1210,303.6,4.8,0.9,32.1,3.0,14.5 ± 1.1
COP(=S)(OC)Oc1ccc([N+](=O)[O-])cc1 [Parathion-methyl],100.0,0.9,5.1 ± 0.2,3.7,438.9,580,100.0,14.5,2.0,100.0,0.9,4.7 ± 0.3

# Reference: publication PMC5118688 (Scientific Reports, 2016)
